Measured values from ChEMBL document CHEMBL3885861, “Open TG-GATES”.

Species: Rattus norvegicus
Assay: Open TG-GATES - Regimen: Daily Repeat
Assay type: toxicity, organism-based, Sprague-Dawley
Parameters: regimen Daily Repeat, gender Male, age 6 weeks
Settings: in vivo, po, route gavage; for gamma-GTP / ALP / ALT / AST / BUN / CRE / Ca / Cl / DBIL / GLC / IP / K / LDH / Na / PL / RALB / TBIL / TC / TG / TP: tissue Plasma; for APTT / Bas / Eos / Fbg / Ht / Lym / MCH / MCHC / MCV / Mono / Neu / PT / Plat / RBC / Ret / WBC: tissue Blood; for KIDNEY_L / KIDNEY_R / KIDNEY_TOTAL: tissue Kidney; for LIVER: tissue Liver
[1] = 100 mg/kg, 72 h, dose level High, time 3 day
[2] = 100 mg/kg, […], dose level High, time 7 day
[3] = 100 mg/kg, […], dose level High, time 14 day
[4] = 100 mg/kg, […], dose level High, time 28 day

## Cc1cccc(Nc2cc(Cl)nc(SCC(=O)O)n2)c1C [PIRINIXIC ACID]
30 mg/kg, […], dose level Middle, time 28 day
  gamma-GTP: 1.2 IU/L
[1]
  TERMINAL_BW: 236.1 g
  APTT: 16.4 s
  Bas: 0%
  Eos: 1%
  Fbg: 210.2 mg/dL
  Ht: 39.4%
  Lym: 73.4%
  MCH: 21.2 pg
  MCHC: 34%
  MCV: 62.5 fL
  Mono: 3%
  Neu: 22%
  PT: 12.2 s
  Plat: 112.9 x10_4/uL
  RBC: 630.2 x10_4/ul
  Ret: 5.7%
  WBC: 78.7 x10_2/uL
  KIDNEY_L: 1.1 g
  KIDNEY_R: 1.1 g
  KIDNEY_TOTAL: 2.1 g
  LIVER: 16.9 g
  ALP: 1976.4 IU/L
  ALT: 70.6 IU/L
  AST: 103.4 IU/L
  BUN: 15.8 mg/dL
  CRE: 0.2 mg/dL
  Ca: 10.8 mg/dL
  Cl: 105.2 meq/L
  DBIL: 0.022 mg/dL
  GLC: 192.2 mg/dL
  IP: 7.3 mg/dL
  K: 4.1 meq/L
  LDH: 189.6 IU/L
  Na: 144 meq/L
  PL: 116 mg/dL
  RALB: 2.7 g/dL
  TBIL: 0.028 mg/dL
  TC: 59 mg/dL
  TG: 34 mg/dL
  TP: 5.4 g/dL
  gamma-GTP: 1 IU/L
[2]
  TERMINAL_BW: 275.8 g
  APTT: 15.4 s
  Bas: 0%
  Eos: 0.8%
  Fbg: 225 mg/dL
  Ht: 36.2%
  Lym: 76.6%
  MCH: 21.4 pg
  MCHC: 34.3%
  MCV: 62.4 fL
  Mono: 3.2%
  Neu: 19%
  PT: 12.5 s
  Plat: 129.5 x10_4/uL
  RBC: 580.4 x10_4/ul
  Ret: 5.9%
  WBC: 116.4 x10_2/uL
  KIDNEY_L: 1.2 g
  KIDNEY_R: 1.2 g
  KIDNEY_TOTAL: 2.3 g
  LIVER: 24.1 g
  ALP: 1688.2 IU/L
  ALT: 46.4 IU/L
  AST: 66.4 IU/L
  BUN: 18.8 mg/dL
  CRE: 0.2 mg/dL
  Ca: 11.3 mg/dL
  Cl: 102.8 meq/L
  DBIL: 0.014 mg/dL
  GLC: 201.8 mg/dL
  IP: 7.4 mg/dL
  K: 4 meq/L
  LDH: 142 IU/L
  Na: 142 meq/L
  PL: 143 mg/dL
  RALB: 3 g/dL
  TBIL: 0.026 mg/dL
  TC: 69.4 mg/dL
  TG: 52 mg/dL
  TP: 6.1 g/dL
  gamma-GTP: 0.6 IU/L
[3]
  TERMINAL_BW: 297.8 g
  APTT: 17.3 s
  Bas: 0%
  Eos: 0.8%
  Fbg: 207 mg/dL
  Ht: 38.8%
  Lym: 75.4%
  MCH: 20.3 pg
  MCHC: 34.6%
  MCV: 58.7 fL
  Mono: 3.6%
  Neu: 19.4%
  PT: 12.9 s
  Plat: 121.9 x10_4/uL
  RBC: 661.2 x10_4/ul
  Ret: 4.3%
  WBC: 147.9 x10_2/uL
  KIDNEY_L: 1.3 g
  KIDNEY_R: 1.3 g
  KIDNEY_TOTAL: 2.6 g
  LIVER: 26.1 g
  ALP: 1872.4 IU/L
  ALT: 49.6 IU/L
  AST: 75 IU/L
  BUN: 19.4 mg/dL
  CRE: 0.2 mg/dL
  Ca: 10.4 mg/dL
  Cl: 102.8 meq/L
  DBIL: 0.022 mg/dL
  GLC: 189.6 mg/dL
  IP: 7.1 mg/dL
  K: 3.8 meq/L
  LDH: 141 IU/L
  Na: 141.8 meq/L
  PL: 149.6 mg/dL
  RALB: 2.9 g/dL
  TBIL: 0.032 mg/dL
  TC: 74.8 mg/dL
  TG: 44.4 mg/dL
  TP: 6.1 g/dL
  gamma-GTP: 1.2 IU/L
[4]
  TERMINAL_BW: 351.6 g
  APTT: 16.6 s
  Bas: 0%
  Eos: 1.2%
  Fbg: 216.6 mg/dL
  Ht: 39.4%
  Lym: 74.2%
  MCH: 18.8 pg
  MCHC: 35%
  MCV: 53.7 fL
  Mono: 4%
  Neu: 19.6%
  PT: 12.4 s
  RBC: 734.2 x10_4/ul
  Ret: 2.5%
  WBC: 118.8 x10_2/uL
  KIDNEY_L: 1.6 g
  KIDNEY_R: 1.6 g
  KIDNEY_TOTAL: 3.1 g
  LIVER: 30.8 g
  ALP: 1888.4 IU/L
  ALT: 41.8 IU/L
  AST: 65.8 IU/L
  BUN: 17.2 mg/dL
  CRE: 0.2 mg/dL
  Ca: 10.8 mg/dL
  Cl: 102.2 meq/L
  DBIL: 0.008 mg/dL
  GLC: 189.2 mg/dL
  IP: 7.6 mg/dL
  K: 3.7 meq/L
  LDH: 109 IU/L
  Na: 141.8 meq/L
  PL: 147.4 mg/dL
  RALB: 3 g/dL
  TBIL: 0.048 mg/dL
  TC: 80 mg/dL
  TG: 43.6 mg/dL
  TP: 6.6 g/dL
  gamma-GTP: 1 IU/L
